# In patent US20120172351A1, “NOVEL FUSED CYCLIC COMPOUND AND USE THEREOF” (priority 2009, published 2012):
# Target: T1, human derived GPR40 (Homo sapiens, UniProt O14842)
# T1 construct: expressed in transfected cells
# Assay: Agonist action on human derived GPR40: change of intracellular calcium concentration in CHO cells (FLIPRtetra)
# Type: cell-based
# Details: agonist activity of compound at 1 μM, relative to 10 μM γ linolenic acid as 100%, wave peak height; CHO cells stably expressing human GPR40
# Protocol: The CHO cell lines that stably expressed human derived GPR40 were used for the determination of the agonist activity. Unless particularly specified, the CHO cell lines were cultured in an α-MEM medium (Wako Pure Chemical Industries, Ltd.) containing 10% dialyzed fetal bovine serum (TRA Thermo Electron).
# The cells cultured almost to confluent on the day before assay were rinsed with PBS (Invitrogen), detached with 0.5 mM EDTA (Wako Pure Chemical Industries, Ltd.), and recovered by centrifugation. The obtained cells were counted, diluted to 2×10^5 cells per 1 mL medium, dispensed by 40 μL per well to a 384 well black clear bottomplate (PE Biosystems), and cultured overnight in a CO2 incubator. Various test compounds were added to CHO cells prepared as mentioned above, and change of intracellular calcium concentration was measured using FLIPRtetra (Molecular Device). For the measurement by this device, a Calcium 4 assay kit (Molecular Devices: R8142) was used.
# First, fatty acid free BSA at the final concentration of 0.1% was added to the buffer attached to the kit to prepare an assay buffer. Using the assay buffer, a loading solution with Fluo4 was prepared such that the final concentration of fatty acid free BSA was 0.1% and the final concentration of probenecid was 625 μM. On the other hand, a test compound was diluted with the assay buffer to a given concentration, and dispensed to the polypropylene 384-well plate (sample plate). The medium was removed from the cell culture plate, and the loading solution with Fluo4 was dispensed by 25 μL. After culture in a CO2 incubator at 37° C. for 40 min, a sample plate and a cell plate were simultaneously set on the FLIPRtetra, various test compounds were added by 25 μL according to the program of the device, and change of intracellular calcium concentration was measured. The agonist activity of each compound at 1 μM was calculated as a relative activity value to the activity of 10 μM γ linolenic acid as 100% from the wave peak height.
# T1 sequence (O14842 whole entry): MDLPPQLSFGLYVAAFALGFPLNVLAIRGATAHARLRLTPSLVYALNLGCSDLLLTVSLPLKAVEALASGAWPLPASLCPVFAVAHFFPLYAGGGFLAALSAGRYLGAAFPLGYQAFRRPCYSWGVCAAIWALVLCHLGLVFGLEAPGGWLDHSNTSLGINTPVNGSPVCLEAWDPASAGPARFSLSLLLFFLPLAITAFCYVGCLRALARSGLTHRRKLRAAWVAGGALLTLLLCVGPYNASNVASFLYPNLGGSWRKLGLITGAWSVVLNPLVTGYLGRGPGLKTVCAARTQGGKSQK
row,activity (%),Compound
1,126,"Cc1oc2cccnc2c1-c1cccc(CNc2ccc3c(c2)OC[C@H]3CC(=O)O)c1C [Example 221, [(3S)-6-{[2-methyl-3-(2-methylfuro[3,2-b]pyridin-3-yl)benzyl]amino}-2,3-dihydro-1-benzofuran-3-yl]acetic acid]"
2,111,"Cc1nn(C(F)F)c(C)c1-c1cccc2c1OCC2Nc1ccc2c(c1)OC[C@H]2CC(=O)O (stereo partly drawn) [Example 67, [(3S)-6-({7-[1-(difluoromethyl)-3,5-dimethyl-1H-pyrazol-4-yl]-2,3-dihydro-1-benzofuran-3-yl}amino)-2,3-dihydro-1-benzofuran-3-yl]acetic acid]"
3,128,"Cc1cc(-c2cccc3c2OC[C@H]3Nc2ccc3c(c2)OC[C@H]3CC(=O)O)c(C)s1 [Example 3, [(3S)-6-{[(3S)-7-(2,5-dimethylthiophen-3-yl)-2,3-dihydro-1-benzofuran-3-yl]amino}-2,3-dihydro-1-benzofuran-3-yl]acetic acid]"
4,132,"Cc1nc(N2CCOCC2)nc(C)c1-c1cccc2c1OC[C@H]2Nc1ccc2c(c1)OC[C@H]2CC(=O)O [Example 77-2, [(3S)-6-({(3S)-7-[4,6-dimethyl-2-(morpholin-4-yl)pyrimidin-5-yl]-2,3-dihydro-1-benzofuran-3-yl}amino)-2,3-dihydro-1-benzofuran-3-yl]acetic acid]"
5,122,"Cc1nn(C(F)F)c(C)c1-c1cccc(CNc2ccc3c(c2)OC[C@H]3CC(=O)O)c1C [Example 109, [(3S)-6-({3-[1-(difluoromethyl)-3,5-dimethyl-1H-pyrazol-4-yl]-2-methylbenzyl}amino)-2,3-dihydro-1-benzofuran-3-yl]acetic acid]"
6,111,"Cc1c(CNc2ccc3c(c2)OC[C@H]3CC(=O)O)cccc1-n1c(C)nc2c(C)cccc21 [Example 153, [(3S)-6-{[3-(2,4-dimethyl-1H-benzimidazol-1-yl)-2-methylbenzyl]amino}-2,3-dihydro-1-benzofuran-3-yl]acetic acid]"
7,123,"Cc1nc2ccc(OCC(F)(F)F)cc2n1-c1cccc2c1OC[C@H]2Nc1ccc2c(c1)OC[C@H]2CC(=O)[O-].[Na+] [Example 99, sodium [(3S)-6-({(3S)-7-[2-methyl-6-(2,2,2-trifluoroethoxy)-1H-benzimidazol-1-yl]-2,3-dihydro-1-benzofuran-3-yl}amino)-2,3-dihydro-1-benzofuran-3-yl]acetate]"
8,121,"Cc1nc(N2CCOCC2)nc(C)c1-c1cccc(CNc2ccc3c(c2)OC[C@H]3CC(=O)O)c1C [Example 242, 1,3-dihydroxy-2-(hydroxymethyl)propan-2-aminium [(3S)-6-({3[4,6-dimethyl-2-(morpholin-4-yl)pyrimidin-5-yl]-2-methylbenzyl}amino)-2,3-dihydro-1-benzofuran-3-yl]acetate]"
9,129,"Cc1c(CNc2ccc3c(c2)OC[C@H]3CC(=O)O)cccc1-n1c(C)nc2cc(C(F)(F)F)ccc21 [Example 131, [(3S)-6-({2-methyl-3-[2-methyl-5-(trifluoromethyl)-1H-benzimidazol-1-yl]benzyl}amino)-2,3-dihydro-1-benzofuran-3-yl]acetic acid]"
10,124,"Cc1nc2ccccn2c1-c1cccc(CNc2ccc3c(c2)OC[C@H]3CC(=O)O)c1C [Example 201, [(3S)-6-{[2-methyl-3-(2-methylimidazo[1,2-a]pyridin-3-yl)benzyl]amino}-2,3-dihydro-1-benzofuran-3-yl]acetic acid]"
11,105,"CCOc1nc2ccc(F)cc2n1-c1cccc2c1CCC2Nc1ccc2c(c1)OC[C@H]2CC(=O)[O-].[Na+] (stereo partly drawn) [Example 227, sodium [(3S)-6-{[4-(2-ethoxy-6-fluoro-1H-benzimidazol-1-yl)-2,3-dihydro-1H-inden-1-yl]amino}-2,3-dihydro-1-benzofuran-3-yl]acetate]"
12,125,"Cc1ccc(CNc2ccc3c(c2)OC[C@H]3CC(=O)O)c(C)c1-c1ccc2nc(C(F)(F)F)cn2c1 [Example 219, [(3S)-6-({2,4-dimethyl-3-[2-(trifluoromethyl)imidazo[1,2-a]pyridin-6-yl]benzyl}amino)-2,3-dihydro-1-benzofuran-3-yl]acetic acid]"
13,129,"CCN(c1ccc(C#N)cc1F)c1cccc2c1OC[C@H]2Nc1ccc2c(c1)OC[C@H]2CC(=O)O [Example 89, [(3S)-6-({(3S)-7-[(4-cyano-2-fluorophenyl)(ethyl)amino]-2,3-dihydro-1-benzofuran-3-yl}amino)-2,3-dihydro-1-benzofuran-3-yl]acetic acid]"
14,125,"CCOc1nc2c(OCC(F)(F)F)cccc2n1-c1cccc(CNc2ccc3c(c2)OC[C@H]3CC(=O)O)c1C [Example 180, [(3S)-6-({3-[2-ethoxy-4-(2,2,2-trifluoroethoxy)-1H-benzimidazol-1-yl]-2-methylbenzyl}amino)-2,3-dihydro-1-benzofuran-3-yl]acetic acid]"
15,121,"COc1ccc(-c2c(C(F)(F)F)ccc(CNc3ccc4c(c3)OC[C@H]4CC(=O)O)c2C)cn1 [Example 207, [(3S)-6-{[3-(6-methoxypyridin-3-yl)-2-methyl-4-(trifluoromethyl)benzyl]amino}-2,3-dihydro-1-benzofuran-3-yl]acetic acid]"
16,121,"CCCN(c1ccc(F)cn1)c1cccc(CNc2ccc3c(c2)OC[C@H]3CC(=O)O)c1C [Example 232, [(3S)-6-({3-[(5-fluoropyridin-2-yl)(propyl)amino]-2-methylbenzyl}amino)-2,3-dihydro-1-benzofuran-3-yl]acetic acid]"
17,132,"Cc1nc(OC(F)F)nc(C)c1-c1cccc(CNc2ccc3c(c2)OC[C@H]3CC(=O)O)c1C [Example 114, [(3S)-6-({3-[2-(difluoromethoxy)-4,6-dimethylpyrimidin-5-yl]-2-methylbenzyl}amino)-2,3-dihydro-1-benzofuran-3-yl]acetic acid]"
18,90,"COc1ccc2c(c1)nc(C1CC1)n2-c1cccc(CNc2ccc3c(c2)OC[C@H]3CC(=O)O)c1C [Example 149, [(3S)-6-{[3-(2-cyclopropyl-5-methoxy-1H-benzimidazol-1-yl)-2-methylbenzyl]amino}-2,3-dihydro-1-benzofuran-3-yl]acetic acid]"
19,129,"Cc1cc(-c2cccc(CNc3ccc4c(c3)OC[C@H]4CC(=O)O)c2F)c(C)s1 [Example 121, [(3S)-6-{[3-(2,5-dimethylthiophen-3-yl)-2-fluorobenzyl]amino}-2,3-dihydro-1-benzofuran-3-yl]acetic acid]"
20,111,"Cc1oc2ncccc2c1-c1cccc(CNc2ccc3c(c2)OC[C@H]3CC(=O)O)c1C [Example 223, [(3S)-6-{[2-methyl-3-(2-methylfuro[2,3-b]pyridin-3-yl)benzyl]amino}-2,3-dihydro-1-benzofuran-3-yl]acetic acid]"

row,Compound,activity (%)
1,"CCOc1nc2ccc(F)cc2n1-c1cccc2c1OC[C@H]2Nc1ccc2c(c1)OC[C@H]2CC(=O)[O-].[Na+] [Example 25, sodium [(3S)-6-{[(3S)-7-(2-ethoxy-6-fluoro-1H-benzimidazol-1-yl)-2,3-dihydro-1-benzofuran-3-yl]amino}-2,3-dihydro-1-benzofuran-3-yl]acetate]",129
2,"CCc1nc2ccc(F)c(F)c2n1-c1cccc2c1OC[C@H]2Nc1ccc2c(c1)OC[C@H]2CC(=O)[O-].[Na+] [Example 31, sodium [(3S)-6-{[(3S)-7-(2-ethyl-6,7-difluoro-1H-benzimidazol-1-yl)-2,3-dihydro-1-benzofuran-3-yl]amino}-2,3-dihydro-1-benzofuran-3-yl]acetate]",127
3,"CCOc1nc2c(F)cc(F)cc2n1-c1cccc2c1OC[C@H]2Nc1ccc2c(c1)OC[C@H]2CC(=O)[O-].[Na+] [Example 37, sodium [(3S)-6-{[(3S)-7-(2-ethoxy-4,6-difluoro-1H-benzimidazol-1-yl)-2,3-dihydro-1-benzofuran-3-yl]amino}-2,3-dihydro-1-benzofuran-3-yl]acetate]",117
4,"O=C([O-])C[C@@H]1COc2cc(N[C@@H]3COc4c3cccc4N3CCOc4ccccc43)ccc21.[Na+] [Example 86, sodium [(3S)-6-{[(3S)-7-(2,3-dihydro-4H-1,4-benzooxazin-4-yl)-2,3-dihydro-1-benzofuran-3-yl]amino}-2,3-dihydro-1-benzofuran-3-yl]acetate]",128
5,"CCc1nc2ccccc2n1-c1cccc2c1OC[C@H]2Nc1ccc2c(c1)OC[C@H]2CC(=O)[O-].[Na+] [Example 19, sodium [(3S)-6-{[(3S)-7-(2-ethyl-1H-benzimidazol-1-yl)-2,3-dihydro-1-benzofuran-3-yl]amino}-2,3-dihydro-1-benzofuran-3-yl]acetate]",129
6,"CCc1nc2ccc(Cl)cc2n1-c1cccc(CNc2ccc3c(c2)OC[C@H]3CC(=O)[O-])c1C.[Na+] [Example 173, sodium [(3S)-6-{[3-(6-chloro-2-ethyl-1H-benzimidazol-1-yl)-2-methylbenzyl]amino}-2,3-dihydro-1-benzofuran-3-yl]acetate]",121
